The text below walks through data of patent US7851489B2, “Pyridinone compounds” (Bristol-Myers Squibb Company, priority 2006, dated 2010).

Where two headings read alike, the source gives them in different places.

The test system of series [1] is GTL-16 human gastric carcinoma model. The series is described as follows: In vivo efficacy against GTL-16 gastric carcinoma xenografts. From the text:
In Vivo Efficacy Determination […] FIG. 1. Antitumor activity against GTL-16 gastric carcinoma xenografts

Series [2] deals with T1, GST-Met kinase (Homo sapiens, UniProt P08581).
T1 construct: host or cells: baculovirus expression system
T1 sequence (P08581 25-1390): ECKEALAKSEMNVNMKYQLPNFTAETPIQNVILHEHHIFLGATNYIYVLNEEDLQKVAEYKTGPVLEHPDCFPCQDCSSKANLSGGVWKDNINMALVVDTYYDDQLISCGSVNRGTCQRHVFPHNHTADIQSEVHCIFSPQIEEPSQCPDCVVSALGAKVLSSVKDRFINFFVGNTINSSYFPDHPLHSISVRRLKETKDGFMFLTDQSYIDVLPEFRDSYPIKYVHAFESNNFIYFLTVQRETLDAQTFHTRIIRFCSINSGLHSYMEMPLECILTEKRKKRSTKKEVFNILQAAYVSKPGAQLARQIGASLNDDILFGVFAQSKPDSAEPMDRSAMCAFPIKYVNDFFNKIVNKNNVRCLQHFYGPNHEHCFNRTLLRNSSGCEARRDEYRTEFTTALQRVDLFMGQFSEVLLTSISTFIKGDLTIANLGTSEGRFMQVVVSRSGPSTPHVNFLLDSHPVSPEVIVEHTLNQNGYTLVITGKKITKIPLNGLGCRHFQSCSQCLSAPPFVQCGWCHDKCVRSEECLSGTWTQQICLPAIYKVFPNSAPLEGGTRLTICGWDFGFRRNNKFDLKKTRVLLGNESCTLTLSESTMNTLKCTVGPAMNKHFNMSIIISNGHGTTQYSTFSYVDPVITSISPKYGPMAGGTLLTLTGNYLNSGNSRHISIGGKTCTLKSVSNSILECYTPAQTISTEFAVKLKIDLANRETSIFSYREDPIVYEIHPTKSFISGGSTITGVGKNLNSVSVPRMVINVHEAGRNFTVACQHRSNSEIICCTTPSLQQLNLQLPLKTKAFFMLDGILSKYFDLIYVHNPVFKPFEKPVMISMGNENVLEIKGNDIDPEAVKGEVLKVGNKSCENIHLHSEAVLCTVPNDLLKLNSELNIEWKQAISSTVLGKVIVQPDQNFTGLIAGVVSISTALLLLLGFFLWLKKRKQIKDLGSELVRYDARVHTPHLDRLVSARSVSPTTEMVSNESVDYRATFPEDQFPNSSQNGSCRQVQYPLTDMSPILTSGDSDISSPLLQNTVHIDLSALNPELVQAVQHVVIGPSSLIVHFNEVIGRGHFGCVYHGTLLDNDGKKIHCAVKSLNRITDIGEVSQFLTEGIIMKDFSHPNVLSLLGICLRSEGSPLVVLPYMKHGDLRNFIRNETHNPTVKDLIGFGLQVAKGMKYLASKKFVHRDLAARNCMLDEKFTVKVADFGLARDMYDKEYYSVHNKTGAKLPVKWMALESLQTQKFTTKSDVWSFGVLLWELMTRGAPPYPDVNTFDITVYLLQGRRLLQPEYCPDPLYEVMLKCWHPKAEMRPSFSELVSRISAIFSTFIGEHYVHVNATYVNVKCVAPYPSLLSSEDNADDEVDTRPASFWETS
The series is described as follows: Met kinase assay. The format is biochemical. Conditions: 1 μM ATP, polyGlu:Tyr (4:1) substrate, 60 min at 30° C.
Procedure: Incubation mixtures employed for the Met kinase assay contain a baculovirus expressed GST-Met kinase, the synthetic substrate polyGlu:Tyr, (4:1), ATP, ATP-γ-^33 P and buffer containing Mn^++, DTT, BSA, and Tris. Reactions were incubated for 60 minutes at 30° C. and stopped by the addition of cold trichloroacetic acid (TCA) to a final concentration 8%. TCA precipitates were collected onto GF/C unifilter plates (Packard Instrument Co., Meriden, Conn.) using a Filtermate universal harvester (Packard Instrument Co., Meriden, Conn.) and the filters are quantitated using a TopCount 96/384-well liquid scintillation counter (Packard Instrument Co., Meriden, Conn.). Dose response curves were generated to determine the concentration required to inhibit 50% of kinase activity (IC—50). Compounds were dissolved at 10 mM in dimethyl sulfoxide (DMSO) and evaluated at ten concentrations, each in duplicate. The final concentration of DMSO in the assay is 1.7%. IC—50 values were derived by non-linear regression.

Series [3] in a line: Pharmacokinetic parameters obtained in mice, 8 h oral exposure study. It is filed as in vivo. Conditions: mouse, serum; single oral dose 50 mg/kg, solution in 70% PEG400/30% water, fasted male Balb/C mice; read-out: Pharmacokinetic Parameters AUC0-8 h. How it is done:
Pharmacokinetic Parameters Obtained in Mice. In a 8 h oral exposure studies, a single-dose of 50 mg/kg of the compounds were delivered as a solution in 70% PEG400/30% water by oral gavage to fasted adult male Balb/C mice (n=2 or 3 per compound). Three serum samples were collected from each mouse at 0.5, 1, 4, 8 h time points following oral dosing. The first two samples were obtained by retro-orbital bleed (˜100 μL/20-25 g mouse) and the third sample by cardiac puncture. The blood samples were allowed to clot on ice, centrifuged and then serum harvested. Plasma samples were stored at −20° C. prior to analysis. The plasma samples were analyzed for parent compound via HPLC coupled tandem mass spectrometry (LC/MS/MS).

The test system of series [4] is U87 human glioblastoma model. Put plainly: In vivo efficacy against U87 glioblastoma xenografts. An excerpt: In Vivo Efficacy Determination […] FIG. 2. Antitumor activity against U87 glioblastoma xenografts
Series [5] concerns the target T2, CYP3A4 (Homo sapiens, UniProt P08684).
T2 construct: host or cells: baculovirus-infected insect cells
Put plainly: Cytochrome P450 assay (recombinant human CYP isoforms, fluorescence). The format is in vitro ADME.
Procedure: The ability of compound to inhibit the major human cytochrome P450s (CYPs) responsible for drug metabolism was evaluated in vitro using recombinant human CYP isoforms. […] CYP3A4 inhibition was evaluated with two substrates: 7-benzyloxy-4-trifluoromethylcoumarin (BFC) and resorufin benzyl ether (BzRes). A single concentration of each model substrate (at approximately the apparent Km, with the exception of BFC, which was tested below the apparent Km) and multiple concentrations of the test compounds, separated by approximately ½ log units, were tested in duplicate. Metabolism of the model substrates was assayed by the production of 7-hydroxy-3-cyanocoumarin, 3-[2-(N,N-diethylamino)ethyl]-7-hydroxy-4-methylcoumarin, 7-hydroxy-4-trifluoromethylcoumarin or resorufin, and measured via fluorescence detection. Assays were conducted in 96-well microtiter plates in the presence of an NADPH generating system. Positive control samples were included in these studies. […] The IC50 values were calculated utilizing XLfit curve-fitting software.

T2 sequence (P08684 whole entry): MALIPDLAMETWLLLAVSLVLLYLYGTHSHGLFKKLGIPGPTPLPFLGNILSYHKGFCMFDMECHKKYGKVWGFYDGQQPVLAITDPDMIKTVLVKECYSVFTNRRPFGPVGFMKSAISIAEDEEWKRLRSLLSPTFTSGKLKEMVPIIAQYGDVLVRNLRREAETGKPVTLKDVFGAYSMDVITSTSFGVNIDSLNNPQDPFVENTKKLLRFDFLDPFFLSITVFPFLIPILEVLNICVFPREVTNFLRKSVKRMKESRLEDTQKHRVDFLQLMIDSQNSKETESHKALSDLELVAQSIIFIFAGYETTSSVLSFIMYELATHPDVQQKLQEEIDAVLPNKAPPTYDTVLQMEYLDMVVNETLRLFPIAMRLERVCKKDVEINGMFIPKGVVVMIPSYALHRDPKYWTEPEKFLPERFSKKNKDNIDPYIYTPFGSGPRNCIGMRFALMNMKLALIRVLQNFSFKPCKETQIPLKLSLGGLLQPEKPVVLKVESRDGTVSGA

Usually IC50 stands for the point on the concentration scale where inhibition reaches its midpoint. In the case of `CCOc1ccn(-c2ccc(F)cc2)c(=O)c1C(=O)Nc1ccc(Oc2ccnc(N)c2Cl)c(F)c1` [Compound 1, N-(4-(2-Amino-3-chloropyridin-4-yloxy)-3-fluorophenyl)-4-ethoxy-1-(4-fluorophenyl)-2-oxo-1,2-dihydropyridine-3-carboxamide], the overt toxicity result in series [1] (GTL-16 study, 6.25 mg/kg to 50 mg/kg dosed once a day for 14 days) was “No overt toxicity was observed”. In addition, the “maximum efficacious dose level” value in series [1] (GTL-16 tumor xenograft) is on record as 25 mg/kg. In addition, in series [1] (GTL-16 tumor xenograft), the “minimum efficacious dose (MED)” value is given as 6.25 mg/kg. Besides, the antitumor activity entry is reported as “complete tumor stasis” in series [1] (GTL-16 xenografts, 25 mg/kg); “complete tumor stasis” in series [1] (GTL-16 xenografts, 50 mg/kg); “complete tumor stasis” in series [4] (25 mg/kg); “complete tumor stasis” in series [4] (50 mg/kg). Moreover, the “antitumor activity at higher dose” value in series [1] (GTL-16 xenografts, 100 mg/kg, previously described study) is “no increase in activity was observed”. The “tumor growth inhibition (TGI)” value in series [1] (GTL-16 xenografts, lowest dose level tested, 6.25 mg/kg) is on record as “greater than 50%”; in series [1] (GTL-16 xenografts, multiple dose levels ranging from 6.25 mg/kg to 50 mg/kg, once a day for 14 days, for at least one tumor doubling time), “greater than 50%”. The compound further came in with an IC50 in series [2] of 3.5 nM. In addition, in series [3], the AUC(0-t) was 236 µM·h.

In the case of `Cl.Nc1cc(Oc2ccc(NC(=O)c3cccn(-c4ccc(F)cc4)c3=O)cc2F)ccn1` [Compound 2, N-(4-(2-Aminopyridin-4-yloxy)-3-fluorophenyl)-1-(4-fluorophenyl)-2-oxo-1,2-dihydropyridine-3-carboxamide, hydrochloride salt], the AUC(0-t) in series [3] is 33 µM·h. Moreover, the IC50 is 510 nM in series [5] (substrate 7-benzyloxy-4-trifluoromethylcoumarin (BFC), read-out: CYP 3A4-BFC IC50) and 6400 nM in series [5] (substrate resorufin benzyl ether (BzRes), read-out: CYP 3A4-BZR IC50).
